Test system: SEM cells
Test: cell viability relative to DMSO control; higher = less cytotoxic
Conditions: 48 h
How it was run: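 NOMO1, SEM and P12-Ichikawa leukemia cells spent at least four passages adapting to each medium before use. They were seeded at 500 cells/well (NOMO1, SEM) or 1000 cells/well (P12-Ichikawa) in 5 μl in 1536-well plates and pin-dosed with library compounds in DMSO at 11 threefold steps from 47 μM down to 0.79 nM. After 48 h at 37°C, CellTiter-Glo One luminescence was read. Viability is reported as a percentage of the DMSO wells on each plate, with cell-free wells as background.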

[1] = HPLM + 10% dialyzed FBS, 0.000781 µM
[2] = HPLM + 10% dialyzed FBS, 0.00234 µM
[3] = HPLM + 10% dialyzed FBS, 0.00702 µM
[4] = HPLM + 10% dialyzed FBS, 0.0211 µM
[5] = HPLM + 10% dialyzed FBS, 0.0632 µM
[6] = HPLM + 10% dialyzed FBS, 0.19 µM
[7] = HPLM + 10% dialyzed FBS, 0.569 µM
[8] = HPLM + 10% dialyzed FBS, 1.71 µM
[9] = HPLM + 10% dialyzed FBS, 5.12 µM
[10] = HPLM + 10% dialyzed FBS, 15.4 µM
[11] = HPLM + 10% dialyzed FBS, 46.1 µM
[12] = RPMI 5 mM glucose + 10% FBS, 0.000781 µM
[13] = RPMI 5 mM glucose + 10% FBS, 0.00234 µM
[14] = RPMI 5 mM glucose + 10% FBS, 0.00702 µM
[15] = RPMI 5 mM glucose + 10% FBS, 0.0211 µM
[16] = RPMI 5 mM glucose + 10% FBS, 0.0632 µM
[17] = RPMI 5 mM glucose + 10% FBS, 0.19 µM
[18] = RPMI 5 mM glucose + 10% FBS, 0.569 µM
[19] = RPMI 5 mM glucose + 10% FBS, 1.71 µM
[20] = RPMI 5 mM glucose + 10% FBS, 5.12 µM
[21] = RPMI 5 mM glucose + 10% FBS, 15.4 µM
[22] = RPMI 5 mM glucose + 10% FBS, 46.1 µM
[23] = RPMI 5 mM glucose + 10% dialyzed FBS, 0.000781 µM
[24] = RPMI 5 mM glucose + 10% dialyzed FBS, 0.00234 µM
[25] = RPMI 5 mM glucose + 10% dialyzed FBS, 0.00702 µM
[26] = RPMI 5 mM glucose + 10% dialyzed FBS, 0.0211 µM
[27] = RPMI 5 mM glucose + 10% dialyzed FBS, 0.0632 µM
[28] = RPMI 5 mM glucose + 10% dialyzed FBS, 0.19 µM
[29] = RPMI 5 mM glucose + 10% dialyzed FBS, 0.569 µM
[30] = RPMI 5 mM glucose + 10% dialyzed FBS, 1.71 µM
[31] = RPMI 5 mM glucose + 10% dialyzed FBS, 5.12 µM
[32] = RPMI 5 mM glucose + 10% dialyzed FBS, 15.4 µM
[33] = RPMI 5 mM glucose + 10% dialyzed FBS, 46.1 µM

Compound	cell viability [1]	cell viability [2]	cell viability [3]	cell viability [4]	cell viability [5]	cell viability [6]	cell viability [7]	cell viability [8]	cell viability [9]	cell viability [10]	cell viability [11]	cell viability [12]	cell viability [13]	cell viability [14]	cell viability [15]	cell viability [16]	cell viability [17]	cell viability [18]	cell viability [19]	cell viability [20]	cell viability [21]	cell viability [22]	cell viability [23]	cell viability [24]	cell viability [25]	cell viability [26]	cell viability [27]	cell viability [28]	cell viability [29]	cell viability [30]	cell viability [31]	cell viability [32]	cell viability [33]
C[C@]12C[C@H](O)[C@H]3[C@@H](CC\C4=C\C(=O)\C=C/[C@]34C)[C@@H]1CC[C@]2(O)C(=O)CO	113%	112%	119%	118%	129%	118%	98.6%	102%	44.8%	67.2%	22.6%	118%	115%	114%	143%	123%	127%	107%	90.1%	40.9%	64.9%	19.6%	–	–	–	–	–	–	–	–	–	–	–
CN1[C@@H]2CC[C@H]1CC(OC(=O)c1c[nH]c3ccccc13)C2 (stereo partly specified)	111%	109%	118%	25.9%	130%	130%	126%	117%	114%	114%	124%	113%	115%	124%	17.8%	123%	116%	111%	119%	137%	98.6%	93.6%	–	–	–	–	–	–	–	–	–	–	–
CC1=NN(c2ccc(C)c(C)c2)C(=O)/C1=N/Nc1cccc(-c2cccc(C(=O)O)c2)c1O	121%	119%	125%	128%	111%	117%	120%	119%	109%	97.6%	75.3%	124%	122%	128%	130%	129%	122%	123%	122%	121%	90.4%	54.7%	–	–	–	–	–	–	–	–	–	–	–
C[C@]12CC[C@@H]3c4ccc(OC(=O)N(CCCl)CCCl)cc4CC[C@H]3[C@@H]1CC[C@@H]2OP(=O)([O-])[O-].[Na+].[Na+]	107%	107%	120%	109%	106%	105%	104%	108%	66.8%	62.5%	63.2%	101%	118%	120%	99.2%	118%	115%	87.9%	90.5%	68.1%	65.4%	27.5%	111%	112%	102%	85.3%	110%	93.9%	83.4%	76.3%	67.5%	65.3%	54.9%
COc1ccc(Cc2ccc(NC(N)=O)cc2)cc1-c1cccc(Cl)c1	106%	104%	110%	95.4%	122%	123%	106%	119%	120%	122%	106%	100%	102%	101%	117%	110%	113%	113%	115%	113%	115%	103%	107%	111%	113%	123%	124%	122%	108%	111%	120%	108%	87.3%
C[C@H](NC(=O)/C(C#N)=C/c1cccc(Br)n1)c1ccccc1	89.8%	102%	98.7%	109%	118%	112%	103%	40.7%	8.01%	6.81%	6.6%	91.1%	98.2%	102%	107%	91.9%	97.6%	93.2%	13%	7.6%	6.42%	6.63%	74.5%	116%	102%	122%	104%	116%	108%	38.2%	8.38%	7.55%	7.44%
C[C@H](O)[C@H]1[C@@H]2[C@H](C)C(=C(\N2C1=O)C(O)=O)/S[C@@H]3CN[C@H](CN[S+](N)([O-])=O)C3	116%	121%	122%	130%	132%	113%	108%	108%	100%	108%	111%	124%	123%	136%	128%	132%	115%	125%	112%	120%	118%	109%	–	–	–	–	–	–	–	–	–	–	–
CC(C)c1cnn2c(NCc3ccccc3)cc(N[C@@H](CO)[C@H](O)CO)nc12	117%	140%	120%	119%	142%	136%	79.9%	9.33%	5.66%	4.28%	1.69%	–	–	–	–	–	–	–	–	–	–	–	121%	134%	121%	123%	120%	121%	80.7%	8.71%	5.19%	3.66%	1.44%
CN\1C(=O)/C(=C(\N=C1N2CCCC[S+]2([O-])=O)C(=O)NCC3=CC=C(F)C=C3)O	98.9%	107%	104%	97.3%	98.5%	96.6%	96.9%	107%	98.3%	109%	91.2%	–	–	–	–	–	–	–	–	–	–	–	104%	95.1%	103%	116%	121%	97.8%	107%	111%	85.5%	111%	95.3%

Source: the supplement of paper PMC11451515
